The source of these data is patent US12280037B2, “Method and pharmaceutical composition for treating or preventing trichomoniasis and uses thereof” (EVOFEM BIOSCIENCES, INC., priority 2020, dated 2025).

Molecules are shown by their SMILES. Converted amounts (≈) assume the structure as drawn. Read-outs that look alike come from different tables or passages of the source.

One data set has as its system T. vaginalis. Conditions: cited from earlier work; for Cure rates in randomized clinical trials of recommended regimens: CDC 2015 Guidelines - Trichomoniasis.
The conditions of data set [1]: CDC 2015 Guidelines - Trichomoniasis; cited from earlier work.
Data set [2] deals with clinical isolates of T. vaginalis. Briefly: Susceptibility testing, minimal lethal concentration (MLC), aerobic. Format: cell-based, Trichomonas vaginalis. How it is done:
Susceptibility testing was conducted with one hundred (100) clinical isolates of T. vaginalis.
Archived, de-identified, clinical isolates of T. vaginalis that were banked in liquid nitrogen were used for this study. The samples had been collected between July 2015 and June 2017, in accordance with institutional review board guidelines, and all patients had consented to the storage and use of their samples for subsequent testing. […] In brief, trichomonads were grown in Diamond's medium 1025 (containing trypticase soy broth, yeast extract, maltose, and calf serum) adjusted to pH 5.9 and supplemented with streptomycin at 1 g/liter and penicillin G at 100 U/ml. A hemocytometer was used to count the trichomonad population and to adjust it to a concentration of 66,666 cells/ml. Isolates were tested in microtiter plates under aerobic conditions. […] Plates were then incubated at 37° C. for 46 hours to 50 hours and read with a Zeiss Axiovert inverted microscope. The concentration of drug in the microplate wells in which no motile trichomonads were observed was reported as the MLC. […] Low-level resistance was defined as an aerobic MLC of 50 μg/ml to 100 μg/ml, moderate-level resistance as an aerobic MLC of 200 μg/ml, and high-level resistance as an aerobic MLC of >400 μg/ml. The MLCs for metronidazole and secnidazole were analyzed using the Wilcoxon signed-rank test to evaluate the differences between treatments.
Each well of a 96-well plate was filled with 150 μL of T. vaginalis suspension in Diamond's growth media (10^4 trichomonads). […] Cultures were visually assessed for survival, defined by observation of motility, through a 100× inverted microscope.

A short description of another data set: clinical. Conditions: female, human, plasma, Mean (% CV); for AUC(0-t): NET AUC0-t; for AUC(0-inf): NET AUC0-∞; for Cmax: NET Cmax.
Where [3] appears, read: meta-analysis of six published studies.
[4] abbreviates: 100 clinical T. vaginalis isolates.
[5] abbreviates: 100 clinical T. vaginalis isolates, aerobic, 46-50 h.
Where [6] appears, read: Group B1 Period 1: EE2/NET alone.
[7] abbreviates: Group B1 Period 2: EE2/NET followed by SYM-1219 2 grams on Day 1.
[8] abbreviates: Group B2 Period 1: EE2/NET alone.
Where [9] appears, read: Group B2 Period 2: SYM-1219 2 grams on Day 1, EE2/NET on Day 2.
Setting [10] is: Group B1: Period 2 (SYM-1219 2 grams same day) vs Period 1 (EE2/NET alone).
The mark [11] stands for this setting: Group B2 (EE2/NET 1 day after SYM-1219 2 grams).
Where [12] appears, read: Group B2: Period 2 (EE2/NET 1 day after SYM-1219 2 grams) vs Period 1 (EE2/NET alone).

As for `Cc1ncc([N+](=O)[O-])n1CCO` [metronidazole], the “Cure rates in randomized clinical trials of recommended regimens” value in the data set with T. vaginalis is on record as 84%-98%. Besides, the “Cure rate for single dose treatment” value in the data set on T. vaginalis (HIV-positive women with trichomoniasis (Kissinger 2010)) is listed as 83.2%. Also, the “Increase in treatment failures with single-dose 2-gram vs 7-day dose (500 mg twice daily)” value with T. vaginalis (HIV-uninfected, non-pregnant women, 2018 comparison study) was 45%. Also, in the data set with T. vaginalis (setting [3]), the “Fewer treatment failures with 7 day-dose compared to single-dose” value is reported as 46% and the “Test of cure (TOC) positive rates after single-dose” value is 6.2% to 18.0%. Besides, in data set [1], the Half-life is 7.3 h. For the same molecule, in data set [2] (setting [4]), the “Isolates exhibiting moderate resistance (aerobic MLC 200 μg/ml)” value turned out to be 1% and the “Prevalence of low-level resistance (aerobic MLC 50 μg/ml to 100 μg/ml)” value is recorded as 7%. Also, in data set [2] (setting [5]), the “MLC, mean (±SD) among all isolates” value is 13.5 ± 26.9 µg/mL (≈ 78.9 µM) and the “MLC, median” value was found to be 6.3 µg/mL (≈ 36.8 µM). The “MLC in the one isolate with a higher MLC for secnidazole than for metronidazole” value in data set [2] (single clinical isolate) was 1.6 µg/mL.
In “clinical” (setting [6]), `C#C[C@]1(O)CC[C@H]2[C@@H]3CCC4=CC(=O)CC[C@@H]4[C@H]3CC[C@@]21C` [NET, norethindrone] registered an AUC(0-t) of 49.4 ng·h/mL, an AUC(0-inf) of 57.8 ng·h/mL and a Cmax of 9.18 ng/mL. In “clinical” (setting [7]), this molecule gave an AUC(0-t) of 53.5 ng·h/mL, an AUC(0-inf) of 62.4 ng·h/mL and a Cmax of 10.1 ng/mL. Besides, in the data set “clinical” (setting [8]), the AUC(0-t) worked out at 61.4 ng·h/mL, the AUC(0-inf) worked out at 75 ng·h/mL and the Cmax is 9.63 ng/mL. In “clinical” (setting [9]), this molecule registered an AUC(0-t) of 61.2 ng·h/mL and a total exposure AUC(0-inf) of 71.5 ng·h/mL. Also, the “NET Cmax, AUC0-t or AUC0-∞ increased by” value (EE2/NET administered 1 day after SYM-1219) was 9-16%. In addition, under “Group B1 (SYM-1219 2 grams co-administered on Day 1)”, the “NET Cmax and AUC increased” value amounted to 13%. Moreover, under setting [10], the “NET AUC0-t, Geometric LSMean % Ratio (SE), 100*Test/Reference” value was 115.52 (5.828) %; the “NET AUC0-∞, Geometric LSMean % Ratio (SE), 100*Test/Reference” value is 116.27 (6.032) %; the “NET Cmax, Geometric LSMean % Ratio (SE), 100*Test/Reference” value is on record as 113.18 (7.958) %. Further, under setting [6], the “NET λz, Mean” value is 0.07709 h⁻¹ and the “NET λz, Median” value is 0.07966 h⁻¹. Further, under setting [7], the “NET t1/2, Median” value was 9.12 h; the “NET λz, Mean” value amounted to 0.07886 h⁻¹; the “NET λz, Median” value was determined as 0.07642 h⁻¹. Also, under setting [11], the “Change in NET AUC” value was “no change” and the “NET Cmax increased by” value is given as 16%. Under setting [12], the “NET AUC0-t, Geometric LSMean % Ratio (SE), 100*Test/Reference” value was 110.78 (4.104) %; the “NET AUC0-∞, Geometric LSMean % Ratio (SE), 100*Test/Reference” value is recorded as 108.75 (4.207) %; the “NET Cmax, Geometric LSMean % Ratio (SE), 100*Test/Reference” value is reported as 116.46 (8.178) %. Under setting [8], the “NET AUC0-∞, Median” value came out at 47.35 ng·h/mL; the “NET t1/2, Median” value turned out to be 9.29 h; the “NET λz, Mean” value came to 0.07369 h⁻¹; the “NET λz, Median” value is 0.07458 h⁻¹. Also, under setting [9], the “NET AUC0-t, Median” value was 44.53 ng·h/mL; the “NET Cmax, Mean (% CV)” value was 10.69 (48.34) ng/mL; the “NET Cmax, Mean (SD)” value was 10.69 (5.169) ng/mL; the “NET Tmax, Median” value is 1.000 h. Under setting [9], the “NET t1/2, Median” value stood at 9.19 h; the “NET λz, Mean” value is 0.07685 h⁻¹; the “NET λz, Median” value was 0.07539 h⁻¹. The “NET Cmax, AUC0-t or AUC0-∞ increased by” value (SYM-1219 administered immediately after EE2/NET) is 13-16%.
On to `CCS(=O)(=O)CCn1c([N+](=O)[O-])cnc1C` [tinidazole], for which the “Cure rates in randomized clinical trials of recommended regimens” value in the data set on T. vaginalis is recorded as 92%-100%. The Half-life in data set [1] was 12.5 h.

By AUC(0-t) is commonly meant exposure summed from dosing to a finite time, without extrapolation to infinity. Usually AUC(0-inf) stands for the area under the concentration-time curve extrapolated to infinity. As a reminder, the Cmax is the peak of the concentration-time curve.
